Patent US8841121B2, “Vector, vector combinations, methods and kit thereof” (Jawaharlal Nehru Centre for Advanced Scientific Research, priority 2010, dated 2014)
“Also recorded” adds a separate entry of the source.

Columns and labels:
Tat [1] = molecular target: T1, Tat (Human immunodeficiency virus type 1 group M subtype B, UniProt P35965); assay: Tat-inducible GFP / anti-RFP shRNA reporter assay, transient transfection in HEK293 cells; assay type: cell-based, HIV-1; design: The full-length Tat cDNA from molecular clone YU-2 (subtype-B) is made from cellular RNA of 293 cells; expressed in transfected cells; host or cells: HEK293 (293) cells, transient transfection; pcDNA3.1 CMV-Tat (YU-2) or EF-1α-Tat (YU-2) vector
T1 sequence (P35965 whole entry): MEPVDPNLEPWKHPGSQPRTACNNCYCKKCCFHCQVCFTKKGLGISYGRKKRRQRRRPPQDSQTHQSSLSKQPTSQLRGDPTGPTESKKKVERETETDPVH
Procedure: (§1) Vector DNA Transfection: All the proof-of-the-concept assays embedded in this document are performed using the transient transfection method formats. Most of the experiments are done using host cells such as HEK293 cells and preferably the standard calcium transfection protocol. Further, few experiments are also performed using HeLa cells. A commercial lipid formulation is used for this and is used following the suppliers instructions.
siRNA Transfection: Anti-Tat siRNA molecules are introduced into cells using a commercial lipid-nanoparticle formulation as per the instructions from the supplier.
Adding Tat Inhibitors to the Cell and Screening to Identify Anti-viral/Tat Molecules: The assays are performed using the following format although several variations are introduced depending on the need. • a) Cell Plating: Cells are plated in 96-well culture plates the previous evening and on the morning of the experiment, they are at 30-40% occupancy and in the logarithmic growth phase. • b) DNA Vector Transfection: A combination of 4 vectors is used in most of the assays. The total DNA concentration ranged from 1 to 2 μg per a 24-well plate or 100-200 ng per 96-well plate depending on the context. • 1. Anti-RFP siRNA vector (pPRIME-LTR-GFP: anti-RFP miRNA (p604.344):100-600 ng • 2. Anti-RFP siRNA vector (pPRIME-LTR-GFP: anti-RFP miRNA (p604.620): 100-600 ng • 3. CMV-Tat (YU-2) vector:50-200 ng • 4. CMV-RFP vector (pCMV-RFP-IRES-Puro) (FIGS. 21):50-200 ng
Cells are monitored for GFP or RFP expression after 24 h after subjected to an anti-Tat compound.
Anti-Tat Compound Treatment: A small molecule inhibitor (at concentrations mentioned in individual experiments above) or anti-Tat siRNA (20-100 ng per well) are used. The anti-Tat agent is used immediately after plasmid DNA transfection or after 12-24 h. Cells are removed from the wells by trypsinization and made into single cell suspension in phosphate buffered saline. The mean fluorescence intensity of the cells was determined using flow cytometry. Alternatively, cells were removed from the well using trypsinization and suspended in PBS. The intensity of the fluorescence was quantitatively determined using a standard fluorimeter. Fluorescent protein gene expression is measured at 24, 36, 48 and 72 h from vector transfection, at one time point or multiple time points.
(§2) DRB (5, 6-dichloro-1-beta-D-ribofuranosylbenzimidazole) a small molecule inhibitor, blocks an essential cellular enzyme CDK9, a kinase, critical for general transcription of many genes and therefore is cytotoxic. […] The Tat inhibition potential as well as cytotoxicity of DRB at 3 different concentrations is tested in HEK 293 cells using plasmid combinations as defined in Table-2. Images of the cells are captured using light microscopy, GFP or RFP filters at 36 h. […] Thus, the GFP-based assay identifies false hits, but not the instant RFP-based assay.

HEK 293 cells = assay: Cytotoxicity / cell death by light microscopy in transfected HEK 293 cells; assay type: cell-based; conditions: for Cytotoxicity / cell death (light microscopy): HEK 293 cells, increasing concentrations of the inhibitor
Procedure: Tat up-regulates GFP expression (middle panels). […] Thus, a cytotoxic molecule down-regulates GFP without being a Tat inhibitor.
293 cells are transiently transfected with pPRIME-LTR-GFP: anti-RFP miRNA (p604.344 and p604.620), CMV-RFP and EF-1α-Tat (YU-2) vectors. Cells are treated with different concentrations of the SMI 24 h after transfection. GFP and RFP expression is recorded 24 h after vector transfection. LM, Light microscopy.
as §2

Tat [2] = molecular target: T2, Tat (Human immunodeficiency virus type 1 group M subtype B, UniProt P04608); conditions: HeLa cells, increasing concentration; cited from earlier work
T2 construct: host or cells: HeLa cells
T2 sequence (P04608 whole entry): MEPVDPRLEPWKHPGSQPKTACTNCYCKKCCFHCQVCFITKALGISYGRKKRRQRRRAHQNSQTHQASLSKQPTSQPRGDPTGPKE

Tat [3] = molecular target: T1, Tat; assay: Tat-inducible GFP / anti-RFP shRNA reporter assay, transient transfection in HeLa cells; assay type: cell-based, HIV-1; design: The full-length Tat cDNA from molecular clone YU-2 (subtype-B) is made from cellular RNA of 293 cells; expressed in transfected cells; pcDNA3.1 CMV-Tat (YU-2) or EF-1α-Tat (YU-2) vector; conditions: 25 μM, 24 h
Procedure: HeLa cells are transiently transfected with pPRIME-LTR-GFP: anti-RFP miRNA (p604.344 and p604.620), CMV-RFP and EF-1α-Tat (YU-2) vectors. Cells are treated with 25 μM DRB. GFP and RFP expression is recorded 24 h after vector transfection.
as §1
The assay also identifies SMI which inhibit cellular factors needed for Tat. 5,6-Dichlorobenzimidazole Riboside (DRB) is a potent inhibitor of CDK9 which is a cellular factor necessary for Tat function. […] Thus the assay of the present disclosure also identify such SMI that have an indirect effect on Tat function.

[4] = HEK 293 cells, with Tat, increasing/different concentrations of the inhibitor

Structure (SMILES)	GFP expression (Tat [1]; [4])	RFP expression (Tat [1]; [4])	Cytotoxicity / cell death (light microscopy) (HEK 293 cells)	other results
COc1ccc(C(=O)C2=C3OC(C)(C)[C@@H](CC=C(C)C)C[C@@]34C[C@@H](CC=C(C)C)C(C)(C)[C@@](CC=C(C)C)(C2=O)C4=O)cc1O [LTK14]	down regulation of GFP	not enhanced RFP expression	progressively increased cell death	
COc1cccc2c1C(=O)c1c(O)c3c(c(O)c1C2=O)C[C@@](O)(C(C)=O)C[C@@H]3O[C@H]1C[C@H](NCc2ccc(CN[C@H]3C[C@H](O[C@H]4C[C@](O)(C(C)=O)Cc5c(O)c6c(c(O)c54)C(=O)c4c(OC)cccc4C6=O)O[C@@H](C)[C@H]3O)cc2)[C@H](O)[C@H](C)O1 [WP631]	marginally reduced GFP expression; also recorded: marginal down regulation of GFP	small relief in RFP suppression is evident, this is not significant; also recorded: insignificant levels of up-regulation of RFP; also recorded: partially relieves RFP gene expression	toxic to the cell at higher concentrations; also recorded: causes apoptosis at higher concentrations	RFP expression (Tat [1]; 293 cells, 100 nM): partially relieves Tat-mediated inhibition of RFP; Cytotoxicity (cell density under light microscopy) (HEK 293 cells; 293 cells, WP631 treatment (100 nM)): Low level cytotoxicity
CC[C@H](CO)Nc1nc(NCc2ccccc2)c2ncn(C(C)C)c2n1 [Roscovitine]				GFP expression (Tat [1]; 293 cells, 3 μM, 48 h): reduced expression of GFP; RFP expression (Tat [1]; 293 cells, 3 μM, 48 h): not in enhanced expression of RFP; Cytotoxicity (HEK 293 cells; 293 cells, 3 μM): cytotoxicity
O=C1CN=C(c2ccc[nH]2)c2cc(Cl)ccc2N1 [R05-3335]				GFP expression (Tat [2]): GFP expression is down-regulated
CN1CC[C@H](c2c(O)cc(O)c3c(=O)cc(-c4ccccc4Cl)oc23)[C@H](O)C1 [Flavipiridol]			progressive increase in cytotoxicity	
OC[C@H]1O[C@@H](n2cnc3cc(Cl)c(Cl)cc32)[C@H](O)[C@@H]1O [DRB, 5,6-dichloro-1-beta-D-ribofuranosylbenzimidazole]	GFP expression also is reduced; also recorded: progressive reduction in GFP expression; also recorded: progressive down-regulation of GFP expression	should have been up-regulated, which is not the case here; also recorded: no concomitant up-regulation of RFP expression	enhanced cell death with increasing concentrations; also recorded: increasing levels of cytotoxicity; also recorded: significant levels of cell death	GFP expression (Tat [3]): relative down regulation of GFP; RFP expression (Tat [3]): relieves Tat-mediated RFP suppression; also recorded: relieves RFP gene expression
